Measurements taken from paper PMC7519584 (Clinical cancer research : an official journal of the …, 2015).

How the values were obtained:
clinical = settings: human, in vivo
[1] = human, in vivo
[2] = ref NCT00610194; cited from earlier work
[3] = Plasma pharmacokinetics of refametinib, metabolite M17 and sorafenib; settings: human, in vivo, Geometric mean maximum drug concentration (Cmax), multiple dose, day 1 of course 2, at the MTD, non-HCC patients
HCC = settings: sorafenib monotherapy, phase III trial in HCC (SHARP); cited from earlier work

| SMILES | half-life (clinical; Plasma half-life (geometric mean)) [h] | Tmax (clinical; po) [h] | Multiple-dose AUC0–12 higher than single-dose AUC0–12 by an average of [1] | Accumulation after multiple dosing ([1]; 28 days) | MTD of refametinib monotherapy [2] [mg twice daily] | Cmax [3] [ng/mL] | Patients with serious AEs considered possibly related to refametinib (human, in vivo) [patients] | Maximum tolerated dose (MTD) of refametinib (in combination with sorafenib 400 mg twice daily, 28-day courses) [mg twice daily] | Sorafenib dose at the MTD of the combination (in combination with refametinib 50 mg twice daily, 28-day courses) [mg twice daily] | Patients who achieved stable disease (HCC) [%] | Response rate (HCC) [%] |
| --- | --- | --- | --- | --- | --- | --- | --- | --- | --- | --- | --- |
| COc1cc(F)c(F)c(Nc2ccc(I)cc2F)c1NS(=O)(=O)C1(C[C@H](O)CO)CC1 [refametinib] | ~16 | ~3 | approximately 40% | less than 2 fold | 50 | 674 | 10 | 50 |  |  |  |
| CNC(=O)c1cc(Oc2ccc(NC(=O)Nc3ccc(Cl)c(C(F)(F)F)c3)cc2)ccn1 [sorafenib] |  |  |  |  |  |  |  |  | 400 | 71 | 2 |
